Assay results published in patent publication US4130559A, “Method for the preparation of 6-aminopenicillinic acid derivatives” (priority 1977, dated 1978).
≈ marks a conversion by molar mass, not a printed value. Where two headings read alike, the source gives them in different places.

Tests used:
[1] = Acid resistance (half-life period); type: physicochemical
Experimental: (§1) All compounds of this group were prepared in the form of sodium salts. Bactericidal activity, degree of hydrolysis with staphylococc penicillinase and acid resistance of the penicillins were determined.

[2] = molecular target: T1, staphylococc penicillinase (Staphylococcus aureus, UniProt P00807); test: Hydrolysis/inactivation by staphylococc penicillinase; type: biochemical; details: for Quantity of inactivated units of compounds under the action of 1 unit of staphylococc penicillinase: Table 5
Experimental: as §1
The substitution of propoxy radical for iso-radical in this position is not accompanied by areduction of penicillin stability against penicillinase which is not observed in the orto- and para-positions. During the subsequent hours of inactivation the rate of hydrolysis of penicillins slightly increases. However, even when observed in dynamics, their stability against penicillianase still persists during 4-hour-inactivation.

B.Subtitis ATCC6633 = test: Minimal bacteriostatic concentration; type: cell-based; details: sodium salts
Experimental: as §1

E.coli O-55 = test: Minimal bacteriostatic concentration; type: cell-based; details: Escherichia coli
Experimental: as §1

E.typhi = test: Minimal bacteriostatic concentration; type: cell-based; details: read-out: Minimal Bacteriostatic Concentration
Experimental: as §1

Myco smegmatis = test: Minimal bacteriostatic concentration; type: cell-based; details: sodium salts
Experimental: as §1

Prot.vulgaris = test: Minimal bacteriostatic concentration; type: cell-based; details: Proteus vulgaris, sodium salts
Experimental: as §1

Ps.aeruginosa = test: Minimal bacteriostatic concentration; type: cell-based; details: Pseudomonas aeruginosa, sodium salts
Experimental: as §1

Sh.dysenteriae Flexneri = test: Minimal bacteriostatic concentration; type: cell-based; details: Shigella dysenteriae, read-out: Minimal Bacteriostatic Concentration
Experimental: as §1

Staph. albus = test: Minimal bacteriostatic concentration; type: cell-based; details: sodium salts
Experimental: as §1

[3] = tested on: Staph. aureus 209p (adapted to benzylpenicillin); test: Minimal bacteriostatic concentration; type: cell-based; details: Staphylococcus aureus, read-out: Minimal Bacteriostatic Concentration
Experimental: as §1

Staph. aureus 209p = test: Minimal bacteriostatic concentration; type: cell-based; details: Staphylococcus aureus, sodium salts
Experimental: as §1

Strept. pyrogenes = test: Minimal bacteriostatic concentration; type: cell-based; details: sodium salts
Experimental: as §1

Vibrion Metschnicoff = test: Minimal bacteriostatic concentration; type: cell-based; details: read-out: Minimal Bacteriostatic Concentration
Experimental: as §1

in vivo = details: mouse, iv
[4] = molecular target: T1, staphylococc penicillinase; details: cited from earlier work
[5] = acid ph 1.3, Temperature 37° C, pH 1.3, Table 1, cyclopentyl series, read-out: τ1/2 half-life period (acid resistance)
[6] = O55, E.coli O-55, sodium salts, read-out: Minimal Bacteriostatic Concentration
[7] = Vibrion Metschnicoff, sodium salts
[8] = O55, read-out: Minimal Bacteriostatic Concentration
[9] = acid ph 1.3, pH 1.3, under conditions of our experiments, read-out: half-life period

T1 sequence (P00807 25-281): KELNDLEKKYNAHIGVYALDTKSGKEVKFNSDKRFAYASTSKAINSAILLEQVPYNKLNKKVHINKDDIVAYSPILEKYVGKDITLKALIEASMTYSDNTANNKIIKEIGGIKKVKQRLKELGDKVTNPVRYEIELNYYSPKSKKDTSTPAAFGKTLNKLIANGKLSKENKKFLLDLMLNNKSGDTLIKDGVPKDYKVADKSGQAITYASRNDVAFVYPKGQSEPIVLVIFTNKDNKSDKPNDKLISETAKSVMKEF

Row | SMILES | half-life [1, 5] [h] | Quantity of inactivated units of compounds under the action of 1 unit of staphylococc penicillinase [2] [units] | MIC (B.Subtitis ATCC6633) [µg/mL] | MIC (E.coli O-55; [6]) [µg/mL] | MIC (E.typhi) [µg/mL] | MIC (Myco smegmatis) [µg/mL] | MIC (Prot.vulgaris) [µg/mL] | MIC (Ps.aeruginosa) [µg/mL] | MIC (Sh.dysenteriae Flexneri) [µg/mL] | MIC (Staph. albus) [µg/mL] | MIC [3] [µg/mL] | MIC (Staph. aureus 209p) [µg/mL] | MIC (Strept. pyrogenes) [µg/mL] | MIC (Vibrion Metschnicoff; [7]) [µg/mL] | MTD (in vivo) [mg/kg] | MIC (E.coli O-55; [8]) [µg/mL] | penicillinase resistance (background statement) [4] | half-life [1, 9] [h] | stability against penicillinase ([2]; during the first hour after inactivation, 60 min) [%] | MIC (Vibrion Metschnicoff) [µg/mL]
1 | CCOc1ccccc1C1(C(=O)NC2C(=O)N3C2SC(C)(C)C3C(=O)O)CCCC1 (centres unmarked) [Compound III (Table 1)] | 1.7 | 20.5 | 7.8 | 500 | 62.5 (≈ 144 µM) | > 500 | 500 | > 500 | 125 (≈ 289 µM) | 0.39 | > 500 | 0.78 | 0.78 | 0.9 | 1000 |  |  |  |  | 
2 | CCOc1cccc(C2(C(=O)NC3C(=O)N4C3SC(C)(C)C4C(=O)O)CCCC2)c1 (centres unmarked) [Compound VIII (Table 1)] | 3.16 | 10.0 | 0.9 |  | 31.2 (≈ 72.1 µM) | > 500 | 250 | > 500 | 125 (≈ 289 µM) | 0.19 | > 500 | 0.39 | 0.39 | 3.9 | 1500 | 250 (≈ 578 µM) |  |  |  | 
3 | CCCOc1cccc(C2(C(=O)NC3C(=O)N4C3SC(C)(C)C4C(=O)O)CCCC2)c1 (centres unmarked) [Compound IX (Table 1), 1-(m-propoxyphenyl)Cyclopentyl-1-Penicillin] | 3.7 | 10.6 | 0.9 |  | 15.6 (≈ 34.9 µM) | > 500 | 125 | > 500 | 62.5 (≈ 140 µM) | 0.19 | > 500 | 0.39 | 0.39 | 3.9 | 1500 | 250 (≈ 560 µM) |  |  |  | 
4 | CC(C)Oc1cccc(C2(C(=O)NC3C(=O)N4C3SC(C)(C)C4C(=O)O)CCCC2)c1 (centres unmarked) [Compound X (Table 1)] | 0.432 | 27.5 | 7.8 |  | 15.6 (≈ 34.9 µM) | > 500 | 250 | > 500 | 62.5 (≈ 140 µM) | 0.19 | > 500 | 0.39 | 0.19 | 3.9 | 1500 | 250 (≈ 560 µM) |  |  |  | 
5 | COc1cccc(OC)c1C(=O)N[C@@H]1C(=O)N2[C@@H]1SC(C)(C)[C@@H]2C(=O)O [methycillin] |  |  |  |  |  |  |  |  |  |  |  |  |  |  |  |  | penicillinase resistant |  |  | 
6 | CC(C)Oc1ccccc1C1(C(=O)NC2C(=O)N3C2SC(C)(C)C3C(=O)O)CCCC1 (centres unmarked) [Compound V (Table 1)] | 0.172 | 12.0 | 7.8 | 500 | 125 (≈ 280 µM) | > 500 | 500 | > 500 | 250 (≈ 560 µM) | 0.39 | > 500 | 0.39 | 0.78 | 0.9 | 1000 to 1500 |  |  |  |  | 
7 | CCCCOc1ccccc1C1(C(=O)NC2C(=O)N3C2SC(C)(C)C3C(=O)O)CCCC1 (centres unmarked) [Compound VI (Table 1), 1-(o-Butoxyphenyl)Cyclopentyl-1-Pencillin] | 0.247 | 16.6 | 15.6 | 500 | 125 (≈ 271 µM) | > 500 | 500 | > 500 | 250 (≈ 543 µM) | 0.19 | > 500 | 0.39 | 0.39 | 1.56 | 1000 |  |  |  |  | 
8 | CCCOc1ccccc1C1(C(=O)NC2C(=O)N3C2SC(C)(C)C3C(=O)O)CCCC1 (centres unmarked) [Compound IV (Table 1)] | 0.248 | 20.45 | 15.6 | > 125 | 62.5 (≈ 140 µM) | > 500 | 500 | > 500 | 125 (≈ 280 µM) | 0.39 | > 500 | 0.19 | 0.39 | 0.9 | 1500 |  |  |  |  | 
9 | COc1ccc(C2(C(=O)NC3C(=O)N4C3SC(C)(C)C4C(=O)O)CCCC2)cc1 (centres unmarked) [Compound XII (Table 1)] | 2.72 | 40.3 | 0.24 |  | 7.8 (≈ 18.6 µM) | > 500 | 62.5 | > 500 | 31.2 (≈ 74.5 µM) | 0.19 |  | 0.19 | 0.048 | 0.48 | 2000 | 125 (≈ 299 µM) |  |  |  | 
10 | COc1ccccc1C1(C(=O)NC2C(=O)N3C2SC(C)(C)C3C(=O)O)CCCC1 (centres unmarked) [Compound II (Table 1)] | 3.12 | 28.8 | 3.9 | 250 | 62.5 (≈ 149 µM) | > 500 | 500 | > 500 | 62.5 (≈ 149 µM) | 0.9 | > 500 | 0.9 | 0.78 |  | 2000 |  |  |  |  | 
11 | CC1(C)S[C@@H]2[C@H](NC(=O)Cc3ccccc3)C(=O)N2[C@H]1C(=O)O [Benzyl Penicillin, benzylpenicillin, reference compound] |  |  | 0.048 |  | 0.39 (≈ 1.17 µM) | > 500 | 1.56 | > 500 | 3.12 (≈ 9.33 µM) | 0.006 | > 500 | 0.012 | 0.003 | 0.78 |  | 31.2 (≈ 93.3 µM) |  | 0.035 |  | 
12 | COc1cccc(C2(C(=O)NC3C(=O)N4C3SC(C)(C)C4C(=O)O)CCCC2)c1 (centres unmarked) [Compound VII (Table 1)] | 4.8 | 14.2 | 1.56 | 250 |  | > 500 | 125 | > 500 | 125 (≈ 299 µM) | 0.39 | > 500 | 0.39 | 0.39 |  | 2500 |  |  |  |  | 
13 | CC1(C)SC2C(NC(=O)C3(c4ccccc4)CCCC3)C(=O)N2C1C(=O)O (centres unmarked) [Compound I (Table 1), 1-Phenylcyclopentyl-1-Penicillin] |  | 0 | 0.09 | 500 | 62.5 (≈ 161 µM) | > 500 | 250 | > 500 | 125 (≈ 322 µM) | 0.048 | > 500 | 0.048 | 0.012 |  | 500 |  |  | 0.433 | 100 | 0.24 (≈ 0.618 µM)
